Measurements from ChEMBL document CHEMBL4507280 (2021).

How the values were obtained:
[1] = target: Cyclin-dependent kinase 18 (Homo sapiens) (UniProt Q07002); conditions: Compound concentration 1000.0 nM
[2] = target: Serine/threonine-protein kinase MRCK alpha (Homo sapiens) (UniProt Q5VT25); conditions: Compound concentration 1000.0 nM
[3] = target: Dual specificity mitogen-activated protein kinase kinase 1 (Homo sapiens) (UniProt Q02750); conditions: Compound concentration 1000.0 nM
[4] = tested on: Phosphatidylinositol 4,5-bisphosphate 3-kinase catalytic subunit alpha isoform (Homo sapiens), P42336 [E545K]; conditions: Compound concentration 1000.0 nM
[5] = target: Interferon-induced, double-stranded RNA-activated protein kinase (Homo sapiens) (UniProt P19525); conditions: Compound concentration 1000.0 nM
[6] = target: Rho-associated protein kinase 2 (Homo sapiens) (UniProt O75116); conditions: Compound concentration 1000.0 nM
[7] = target: Ribosomal protein S6 kinase alpha-6 (Homo sapiens) (UniProt Q9UK32); conditions: Compound concentration 1000.0 nM
[8] = target: Mitogen-activated protein kinase 15 (Homo sapiens) (UniProt Q8TD08); conditions: Compound concentration 1000.0 nM
[9] = target: Ephrin type-B receptor 2 (Homo sapiens) (UniProt P29323); conditions: Compound concentration 1000.0 nM
[10] = target: Cyclin-dependent kinase 16 (Homo sapiens) (UniProt Q00536); conditions: Compound concentration 1000.0 nM
Sequence of Cyclin-dependent kinase 16 (Homo sapiens) (Q00536 whole entry): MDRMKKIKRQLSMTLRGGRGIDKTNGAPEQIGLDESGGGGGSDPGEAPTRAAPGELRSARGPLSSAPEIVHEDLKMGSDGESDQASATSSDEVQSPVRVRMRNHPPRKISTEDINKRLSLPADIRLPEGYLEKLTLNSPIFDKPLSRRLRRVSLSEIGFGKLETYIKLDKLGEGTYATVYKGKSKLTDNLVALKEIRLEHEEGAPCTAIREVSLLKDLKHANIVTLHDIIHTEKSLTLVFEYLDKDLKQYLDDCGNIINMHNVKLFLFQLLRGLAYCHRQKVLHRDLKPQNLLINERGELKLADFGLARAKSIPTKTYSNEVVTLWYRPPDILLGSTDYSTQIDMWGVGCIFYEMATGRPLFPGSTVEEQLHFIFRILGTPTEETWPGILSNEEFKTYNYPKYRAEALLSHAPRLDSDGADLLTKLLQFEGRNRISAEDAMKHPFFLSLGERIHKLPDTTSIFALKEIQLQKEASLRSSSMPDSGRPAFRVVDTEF

[11] = target: Serine/threonine-protein kinase MRCK gamma (Homo sapiens) (UniProt Q6DT37); conditions: Compound concentration 1000.0 nM
[12] = target: Interleukin-1 receptor-associated kinase 1 (Homo sapiens) (UniProt P51617); conditions: Compound concentration 1000.0 nM
[13] = target: Focal adhesion kinase 1 (Homo sapiens) (UniProt Q05397); conditions: Compound concentration 1000.0 nM
[14] = target: Epithelial discoidin domain-containing receptor 1 (Homo sapiens) (UniProt Q08345); conditions: Compound concentration 1000.0 nM
Sequence of Epithelial discoidin domain-containing receptor 1 (Homo sapiens) (Q08345 whole entry, the tested form may be a part): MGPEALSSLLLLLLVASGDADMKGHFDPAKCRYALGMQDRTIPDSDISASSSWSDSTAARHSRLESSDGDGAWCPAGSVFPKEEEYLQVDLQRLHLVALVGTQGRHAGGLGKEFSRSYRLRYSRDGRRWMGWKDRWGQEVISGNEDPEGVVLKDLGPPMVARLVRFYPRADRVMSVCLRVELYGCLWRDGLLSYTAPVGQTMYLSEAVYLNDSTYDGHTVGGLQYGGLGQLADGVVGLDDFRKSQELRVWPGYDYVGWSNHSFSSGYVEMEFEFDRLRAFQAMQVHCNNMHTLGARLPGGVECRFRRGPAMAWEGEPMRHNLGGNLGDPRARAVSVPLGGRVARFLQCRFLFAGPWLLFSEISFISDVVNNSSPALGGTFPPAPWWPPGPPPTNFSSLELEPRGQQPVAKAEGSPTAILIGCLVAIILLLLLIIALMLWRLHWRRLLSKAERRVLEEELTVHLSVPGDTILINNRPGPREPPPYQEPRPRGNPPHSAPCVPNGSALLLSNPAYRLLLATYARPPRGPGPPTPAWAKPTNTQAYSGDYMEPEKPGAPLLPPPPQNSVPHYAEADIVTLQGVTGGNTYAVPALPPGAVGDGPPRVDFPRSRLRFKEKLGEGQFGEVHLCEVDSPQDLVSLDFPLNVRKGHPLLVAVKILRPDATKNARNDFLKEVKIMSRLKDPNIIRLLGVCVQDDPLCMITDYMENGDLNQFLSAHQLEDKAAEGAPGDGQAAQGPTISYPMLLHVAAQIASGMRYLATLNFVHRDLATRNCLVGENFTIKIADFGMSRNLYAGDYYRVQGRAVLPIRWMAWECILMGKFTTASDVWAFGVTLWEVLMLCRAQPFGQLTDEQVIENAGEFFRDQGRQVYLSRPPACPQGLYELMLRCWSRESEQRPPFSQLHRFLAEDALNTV

[15] = target: Rhodopsin kinase GRK1 (Homo sapiens) (UniProt Q15835); conditions: Compound concentration 1000.0 nM
[16] = target: Aurora kinase B (Homo sapiens) (UniProt Q96GD4); conditions: Compound concentration 1000.0 nM
[17] = target: Misshapen-like kinase 1 (Homo sapiens) (UniProt Q8N4C8); conditions: Compound concentration 1000.0 nM
[18] = target: Serine/threonine-protein kinase PLK2 (Homo sapiens) (UniProt Q9NYY3); conditions: Compound concentration 1000.0 nM
[19] = target: Casein kinase I isoform gamma-2 (Homo sapiens) (UniProt P78368); conditions: Compound concentration 1000.0 nM
Sequence of Casein kinase I isoform gamma-2 (Homo sapiens) (P78368 whole entry, looked up, canonical isoform): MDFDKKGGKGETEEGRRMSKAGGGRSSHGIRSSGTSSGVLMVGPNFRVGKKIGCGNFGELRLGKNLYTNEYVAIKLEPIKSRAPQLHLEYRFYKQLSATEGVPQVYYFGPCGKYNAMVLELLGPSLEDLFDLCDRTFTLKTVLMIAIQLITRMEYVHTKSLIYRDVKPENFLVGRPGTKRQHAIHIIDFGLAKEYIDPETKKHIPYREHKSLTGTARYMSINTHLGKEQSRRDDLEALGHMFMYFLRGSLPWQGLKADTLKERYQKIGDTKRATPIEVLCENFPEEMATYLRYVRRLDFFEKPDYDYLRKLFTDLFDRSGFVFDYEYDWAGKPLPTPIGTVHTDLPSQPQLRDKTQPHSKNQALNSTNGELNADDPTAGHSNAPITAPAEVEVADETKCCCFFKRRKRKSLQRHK

[20] = target: Serine/threonine-protein kinase PAK 1 (Homo sapiens) (UniProt Q13153); conditions: Compound concentration 1000.0 nM
[21] = target: Cyclin-dependent kinase 4 (Homo sapiens) (UniProt P11802); conditions: Compound concentration 1000.0 nM
Sequence of Cyclin-dependent kinase 4 (Homo sapiens) (P11802 whole entry): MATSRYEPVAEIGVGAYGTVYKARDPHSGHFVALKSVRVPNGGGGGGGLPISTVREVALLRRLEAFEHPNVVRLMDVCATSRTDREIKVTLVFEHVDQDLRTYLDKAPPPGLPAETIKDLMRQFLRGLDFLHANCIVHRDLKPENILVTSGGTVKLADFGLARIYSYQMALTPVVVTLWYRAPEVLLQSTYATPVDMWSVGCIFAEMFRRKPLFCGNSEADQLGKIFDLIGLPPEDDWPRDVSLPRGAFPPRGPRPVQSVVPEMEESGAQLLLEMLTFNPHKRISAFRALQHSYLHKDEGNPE

[22] = tested on: Fibroblast growth factor receptor 3 (Homo sapiens), P22607 [G697C]; conditions: Compound concentration 1000.0 nM
[23] = target: Phosphorylase b kinase regulatory subunit alpha, liver isoform (Homo sapiens) (UniProt P46019); conditions: Compound concentration 1000.0 nM
Sequence of Phosphorylase b kinase regulatory subunit alpha, liver isoform (Homo sapiens) (P46019 whole entry, canonical isoform): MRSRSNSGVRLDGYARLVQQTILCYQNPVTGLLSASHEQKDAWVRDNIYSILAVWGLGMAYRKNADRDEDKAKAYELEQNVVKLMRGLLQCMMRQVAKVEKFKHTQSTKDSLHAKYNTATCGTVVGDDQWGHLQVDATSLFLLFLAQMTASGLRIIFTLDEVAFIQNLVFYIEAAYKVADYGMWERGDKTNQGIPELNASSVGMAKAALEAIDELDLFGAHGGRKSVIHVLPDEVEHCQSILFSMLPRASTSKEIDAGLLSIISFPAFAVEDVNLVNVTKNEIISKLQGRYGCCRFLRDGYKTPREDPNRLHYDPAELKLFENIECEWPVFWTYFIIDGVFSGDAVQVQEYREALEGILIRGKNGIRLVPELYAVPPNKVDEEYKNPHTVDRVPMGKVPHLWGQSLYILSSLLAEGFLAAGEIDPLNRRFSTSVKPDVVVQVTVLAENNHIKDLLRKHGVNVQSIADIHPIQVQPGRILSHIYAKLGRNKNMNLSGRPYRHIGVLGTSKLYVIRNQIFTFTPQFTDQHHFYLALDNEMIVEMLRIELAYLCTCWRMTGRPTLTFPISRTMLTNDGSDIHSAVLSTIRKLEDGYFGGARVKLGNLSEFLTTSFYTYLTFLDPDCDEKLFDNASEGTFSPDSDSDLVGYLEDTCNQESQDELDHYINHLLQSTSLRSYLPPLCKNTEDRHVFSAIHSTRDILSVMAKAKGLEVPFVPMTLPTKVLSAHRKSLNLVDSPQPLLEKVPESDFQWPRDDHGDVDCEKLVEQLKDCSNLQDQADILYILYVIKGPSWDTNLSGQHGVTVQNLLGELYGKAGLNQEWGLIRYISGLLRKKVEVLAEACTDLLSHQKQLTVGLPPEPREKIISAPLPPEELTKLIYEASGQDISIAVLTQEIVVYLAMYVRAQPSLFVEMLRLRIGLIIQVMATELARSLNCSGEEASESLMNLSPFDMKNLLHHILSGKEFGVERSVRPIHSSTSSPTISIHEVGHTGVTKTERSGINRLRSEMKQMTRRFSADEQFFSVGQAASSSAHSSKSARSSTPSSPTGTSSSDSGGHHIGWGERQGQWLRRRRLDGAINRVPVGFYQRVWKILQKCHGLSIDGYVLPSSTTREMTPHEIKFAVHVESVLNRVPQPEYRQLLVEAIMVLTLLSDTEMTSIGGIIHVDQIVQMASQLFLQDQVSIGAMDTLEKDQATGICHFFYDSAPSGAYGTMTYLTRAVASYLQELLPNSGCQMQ

[24] = target: Casein kinase I isoform alpha-like (Homo sapiens) (UniProt Q8N752); conditions: Compound concentration 1000.0 nM
[25] = target: Mitotic checkpoint serine/threonine-protein kinase BUB1 (Homo sapiens) (UniProt O43683); conditions: Compound concentration 1000.0 nM
[26] = target: Serine/threonine-protein kinase TAO3 (Homo sapiens) (UniProt Q9H2K8); conditions: Compound concentration 1000.0 nM
[27] = target: Serine/threonine-protein kinase 38-like (Homo sapiens) (UniProt Q9Y2H1); conditions: Compound concentration 1000.0 nM
Sequence of Serine/threonine-protein kinase 38-like (Homo sapiens) (Q9Y2H1 2-464 limits assumed): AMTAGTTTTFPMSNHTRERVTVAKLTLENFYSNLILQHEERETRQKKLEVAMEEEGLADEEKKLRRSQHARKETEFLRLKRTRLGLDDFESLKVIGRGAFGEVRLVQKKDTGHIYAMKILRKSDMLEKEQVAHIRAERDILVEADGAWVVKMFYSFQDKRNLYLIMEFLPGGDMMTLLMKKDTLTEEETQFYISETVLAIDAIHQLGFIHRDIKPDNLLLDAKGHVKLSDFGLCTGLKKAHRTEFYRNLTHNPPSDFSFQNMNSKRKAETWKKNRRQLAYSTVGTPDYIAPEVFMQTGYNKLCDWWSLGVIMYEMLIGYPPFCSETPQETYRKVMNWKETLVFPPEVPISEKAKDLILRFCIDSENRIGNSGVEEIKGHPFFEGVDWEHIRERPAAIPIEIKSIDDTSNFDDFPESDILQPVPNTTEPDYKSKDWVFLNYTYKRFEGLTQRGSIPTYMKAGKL

[28] = target: D(4) dopamine receptor (Homo sapiens) (UniProt P21917); conditions: Compound concentration 10.0 uM
[29] = target: Megakaryocyte-associated tyrosine-protein kinase (Homo sapiens) (UniProt P42679); conditions: Compound concentration 1000.0 nM
[30] = target: cAMP-dependent protein kinase catalytic subunit PRKX (Homo sapiens) (UniProt P51817); conditions: Compound concentration 1000.0 nM
[31] = target: Cyclin-dependent kinase 13 (Homo sapiens) (UniProt Q14004); conditions: Compound concentration 1000.0 nM
[32] = target: Ribosomal protein S6 kinase alpha-2 (Homo sapiens) (UniProt Q15349); conditions: Compound concentration 1000.0 nM
[33] = target: Sodium-dependent dopamine transporter (Homo sapiens) (UniProt Q01959); conditions: Compound concentration 10.0 uM
[34] = target: Macrophage colony-stimulating factor 1 receptor (Homo sapiens) (UniProt P07333); conditions: Compound concentration 1000.0 nM
[35] = target: Tyrosine-protein kinase Yes (Homo sapiens) (UniProt P07947); conditions: Compound concentration 1000.0 nM
[36] = tested on: Phosphatidylinositol 4,5-bisphosphate 3-kinase catalytic subunit alpha isoform (Homo sapiens), P42336 [Q546K]; conditions: Compound concentration 1000.0 nM
[37] = target: Receptor-interacting serine/threonine-protein kinase 1 (Homo sapiens) (UniProt Q13546); conditions: Compound concentration 1000.0 nM
Sequence of Receptor-interacting serine/threonine-protein kinase 1 (Homo sapiens) (Q13546 whole entry): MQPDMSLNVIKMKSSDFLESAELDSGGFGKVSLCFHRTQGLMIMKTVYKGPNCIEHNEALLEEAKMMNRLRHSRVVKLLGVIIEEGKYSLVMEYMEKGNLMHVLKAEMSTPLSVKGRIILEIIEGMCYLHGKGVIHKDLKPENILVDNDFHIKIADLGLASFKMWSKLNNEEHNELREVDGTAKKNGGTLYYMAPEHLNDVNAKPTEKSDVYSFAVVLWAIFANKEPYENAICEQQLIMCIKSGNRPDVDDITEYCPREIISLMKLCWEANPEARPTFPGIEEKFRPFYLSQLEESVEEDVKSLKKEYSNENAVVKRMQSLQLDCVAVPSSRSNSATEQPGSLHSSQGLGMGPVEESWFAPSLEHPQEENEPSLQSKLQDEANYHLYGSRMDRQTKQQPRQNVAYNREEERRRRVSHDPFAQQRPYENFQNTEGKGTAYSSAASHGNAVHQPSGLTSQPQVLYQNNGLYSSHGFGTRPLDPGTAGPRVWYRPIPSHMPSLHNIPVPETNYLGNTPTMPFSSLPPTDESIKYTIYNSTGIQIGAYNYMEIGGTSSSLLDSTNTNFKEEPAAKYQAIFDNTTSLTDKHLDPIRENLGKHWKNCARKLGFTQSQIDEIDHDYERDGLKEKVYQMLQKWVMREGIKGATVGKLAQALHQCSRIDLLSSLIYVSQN

[38] = target: Receptor tyrosine-protein kinase erbB-2 (Homo sapiens) (UniProt P04626); conditions: Compound concentration 1000.0 nM
[39] = target: Tyrosine-protein kinase Fes/Fps (Homo sapiens) (UniProt P07332); conditions: Compound concentration 1000.0 nM
[40] = tested on: Tyrosine-protein kinase ABL1 (Homo sapiens), P00519 [M351T]; conditions: Compound concentration 1000.0 nM
[41] = target: Inhibitor of nuclear factor kappa-B kinase subunit alpha (Homo sapiens) (UniProt O15111); conditions: Compound concentration 1000.0 nM
[42] = target: Serine/threonine-protein kinase 24 (Homo sapiens) (UniProt Q9Y6E0); conditions: Compound concentration 1000.0 nM
Sequence of Serine/threonine-protein kinase 24 (Homo sapiens) (Q9Y6E0 whole entry, looked up): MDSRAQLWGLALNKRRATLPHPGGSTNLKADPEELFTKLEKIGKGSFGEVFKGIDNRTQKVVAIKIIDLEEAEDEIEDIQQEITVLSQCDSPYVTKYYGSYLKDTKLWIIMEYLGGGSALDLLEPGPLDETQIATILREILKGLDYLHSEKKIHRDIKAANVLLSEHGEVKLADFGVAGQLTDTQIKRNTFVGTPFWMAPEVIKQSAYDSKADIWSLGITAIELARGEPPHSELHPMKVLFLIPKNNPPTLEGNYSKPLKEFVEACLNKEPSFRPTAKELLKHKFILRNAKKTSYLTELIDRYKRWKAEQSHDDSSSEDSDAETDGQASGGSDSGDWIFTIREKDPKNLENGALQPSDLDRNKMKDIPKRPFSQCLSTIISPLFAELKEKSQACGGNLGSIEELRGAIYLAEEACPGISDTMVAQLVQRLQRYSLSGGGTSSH

[43] = target: Cytoplasmic tyrosine-protein kinase BMX (Homo sapiens) (UniProt P51813); conditions: Compound concentration 1000.0 nM
[44] = target: Eukaryotic translation initiation factor 2-alpha kinase 1 (Homo sapiens) (UniProt Q9BQI3); conditions: Compound concentration 1000.0 nM
[45] = target: Cyclin-dependent kinase 4 (Homo sapiens) (UniProt P11802); conditions: Compound concentration 1000.0 nM; remark: listed apart in the source

CCC(=O)N[C@H]1CC[C@@H](C(=O)N(C)c2ccc(-c3nc4ccccc4o3)cc2)C1 [BI 99179]
residual activity [1]: 100% | residual activity [2]: 87% | residual activity [3]: 89% | residual activity [4]: 74% | residual activity [5]: 100% | residual activity [6]: 100% | residual activity [7]: 92% | residual activity [8]: 100% | residual activity [9]: 100% | residual activity [10]: 88% | residual activity [11]: 91% | residual activity [12]: 83% | residual activity [13]: 100% | residual activity [14]: 100% | residual activity [15]: 77% | residual activity [16]: 83% | residual activity [17]: 89% | residual activity [18]: 96% | residual activity [19]: 100% | residual activity [20]: 82% | residual activity [21]: 79% | residual activity [22]: 100% | residual activity [23]: 100% | residual activity [24]: 100% | residual activity [25]: 74% | residual activity [26]: 70% | residual activity [27]: 79% | inhibition [28]: 11.2% | residual activity [29]: 100% | residual activity [30]: 91% | residual activity [31]: 100% | residual activity [32]: 100% | inhibition [33]: 77.3% | residual activity [34]: 93% | residual activity [35]: 82% | residual activity [36]: 91% | residual activity [37]: 100% | residual activity [38]: 100% | residual activity [39]: 73% | residual activity [40]: 94% | residual activity [41]: 100% | residual activity [42]: 95% | residual activity [43]: 100% | residual activity [44]: 93% | residual activity [45]: 88%

CCC(=O)N[C@@H]1CC[C@H](C(=O)N(C)c2ccc(-c3nc4ccccc4o3)cc2)C1 [BI 99990]
residual activity [1]: 95% | residual activity [2]: 100% | residual activity [3]: 100% | residual activity [4]: 75% | residual activity [5]: 100% | residual activity [6]: 100% | residual activity [7]: 100% | residual activity [8]: 100% | residual activity [9]: 82% | residual activity [10]: 100% | residual activity [11]: 100% | residual activity [12]: 100% | residual activity [13]: 100% | residual activity [14]: 100% | residual activity [15]: 76% | residual activity [16]: 96% | residual activity [17]: 96% | residual activity [18]: 100% | residual activity [19]: 100% | residual activity [20]: 82% | residual activity [21]: 96% | residual activity [22]: 88% | residual activity [23]: 100% | residual activity [24]: 100% | residual activity [25]: 89% | residual activity [26]: 87% | residual activity [27]: 100% | inhibition [28]: 16.4% | residual activity [29]: 100% | residual activity [30]: 100% | residual activity [31]: 100% | residual activity [32]: 100% | inhibition [33]: 23.3% | residual activity [34]: 88% | residual activity [35]: 100% | residual activity [36]: 100% | residual activity [37]: 100% | residual activity [38]: 100% | residual activity [39]: 96% | residual activity [40]: 100% | residual activity [41]: 100% | residual activity [42]: 100% | residual activity [43]: 98% | residual activity [44]: 88% | residual activity [45]: 100%
